Measured values: PMC12563087, “Preparation, Stability and In Vitro Antineoplastic Function of Lecithin–Chitosan–Polyethylene Glycol Nanoparticles Loaded with Bioactive Peptides Derived from Phycocyanin” (Foods, 2025)
Ends that are not written are not given here.

Tested on: pepsin
Experiment: In vitro simulated gastric digestion (pepsin) of PCPs and PCP-loaded NPs
Type: in vitro ADME
Conditions: after 20 min of in vitro simulated gastric digestion by pepsin; mean ± SD

| Substance | degradation rate |
| --- | --- |
| ADSLLSGLR [PCP2] | 71.65% ± 2.99% |
| AGDASVLEDR [PCP1] | 78.82% ± 3.46% |
| MFDAFTK [PCP3] | 77.24% ± 1.72% |
